Test results as given in PubChem BioAssay AID651569 (Sanford-Burnham Center for Chemical Genomics, 2012).
Activity calls are given as the source filed them. No rule for the calls is given here.

Tested on: luminescent cytotoxicity (cell viability) counter-screen
Assay: cytotoxicity of Gli-SUFU antagonist hits, dose response, cytotoxicity control for Gli-SUFU antagonist project, cell-based, luminescence, uHTS hits (AID 651569);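 also: compound exposure lasted overnight before the viability readout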

SMILES	IC50
Cc1ccc2c(c1)c(C)cc[n+]2Cc1ccccc1	> 20 µM (inactive)
O=C(C[C@H]1C/C=C\C[C@H](NC(=O)OCC2c3ccccc3-c3ccccc32)C(=O)OC[C@@H]2CCCN2C1=O)N[C@H](CO)Cc1ccccc1	> 20 µM (inactive)
Cc1csc2ncnc(NCCc3ccccn3)c12	> 20 µM (inactive)
Cc1ncoc1C(=O)NC1CCCc2c1cnn2-c1ccc(C(C)(C)C)cc1 (stereo unspecified)	> 20 µM (inactive)
COCCNc1nc2c(c(=O)n(C)c(=O)n2C)n1Cc1cccc(C(F)(F)F)c1	12.4 µM
CCOC(=O)N1CCN(C(=O)c2cc(COc3ccc4ncccc4c3)on2)CC1	> 20 µM (inactive)
CCCCCCCN1C2=NCCCN2c2ccccc21	> 20 µM (inactive)
O=S(=O)(NCc1ccncc1)c1ccc(S(=O)(=O)NCC2CCCO2)cc1 (stereo unspecified)	> 20 µM (inactive)
O=C(C[C@@H]1C/C=C\C[C@H](NC(=O)OCC2c3ccccc3-c3ccccc32)C(=O)OC[C@H]2CCCN2C1=O)N[C@H](CO)Cc1ccccc1	> 20 µM (inactive)
NC(=O)CC(NC(=O)c1ccccc1)c1ccc(N2CCCCCC2)c([N+](=O)[O-])c1 (stereo unspecified)	> 20 µM (inactive)
CCOC(=O)C1CCCN(S(=O)(=O)c2ccc(S(=O)(=O)N(CC)CC)cc2)C1 (stereo unspecified)	> 20 µM (inactive)
COc1cc(C(=O)NC2CCN(C)CC2)ccc1Nc1ncc2c(n1)N(CCc1ccccc1)CCC(=O)N2C	> 20 µM (inactive)
Clc1ccc(-c2c[n+](Cc3ccc(Cl)cc3Cl)c3n2CCCCC3)cc1	9.17 µM
N=c1c2c(n(Cc3ccc(F)cc3)c3c1CCC3)CCCC2	> 20 µM (inactive)
CNS(=O)(=O)c1cccc(C(=O)OCC(=O)c2cc(C)n(CC3CCCO3)c2C)c1 (stereo unspecified)	> 20 µM (inactive)
NC(=O)c1c(-c2ccc(Cl)cc2Cl)csc1NC(=O)Cc1ccccc1	16.8 µM
Nc1nc2ccccc2n1/N=C/c1ccc([N+](=O)[O-])s1	> 20 µM (inactive)
CN(C)CCn1c2ccccc2c2nc3ccc([N+](=O)[O-])cc3cc21	> 20 µM (inactive)
Cc1sc2ncnc(NCC(O)c3ccc([N+](=O)[O-])cc3)c2c1C (stereo unspecified)	> 20 µM (inactive)
c1ccc2c(c1)OCC(CNc1ncnc3sccc13)O2 (stereo unspecified)	> 20 µM (inactive)
Cc1ccc(NC(=O)/C=C/c2ccco2)cc1S(=O)(=O)N1CCCCCC1	6.1 µM
Cc1ccc(C)c(-c2csc(NC(=O)C3=COCCO3)n2)c1	> 20 µM (inactive)
C/C(=N\Nc1ccc(Cl)nn1)c1ccccc1O	> 20 µM (inactive)

SMILES	IC50
COC(=O)c1cc(S(=O)(=O)N2CCC(c3cc(OC)ccc3OC)C2)c[nH]1 (stereo unspecified)	> 20 µM (inactive)
COc1ccc(CNc2cc(C)nc3ncnn23)c(OC)c1	> 20 µM (inactive)
CC(C)(C)c1ccc(C(=O)NC(=S)Nc2ccc(N3CCOCC3)cc2)cc1	> 20 µM (inactive)
COc1ccc2c(c1)c(C)cc[n+]2Cc1ccccc1	> 20 µM (inactive)
COc1ccccc1CCNC(=O)c1cc(-c2ccncc2)nc2ccc(Br)cc12	> 20 µM (inactive)
COc1ccc(-n2cc(-c3ccc(OC(F)F)cc3)[n+]3c2CCCCC3)cc1	> 20 µM (inactive)
CC1=CC(C)C2(COC(c3ccc[n+](C)c3)OC2)C(C)C1 (stereo unspecified)	> 20 µM (inactive)
COc1ccc(C2=[N+](C)CCn3cccc32)c(OC)c1	> 20 µM (inactive)
CC(C)C(=O)NC(=S)/C=C1/N(C)c2ccccc2C1(C)C	> 20 µM (inactive)
CCCn1c2c(c(=N)c3c1CCC3)CCCC2	> 20 µM (inactive)
Cc1nc2ccccc2n1Cc1ccc(Br)cc1	> 20 µM (inactive)
O=C(Nc1cccc(C(F)(F)F)c1)C1CCN(S(=O)(=O)c2ccc(N3CCCC3=O)cc2)CC1	> 20 µM (inactive)
CCOc1ccc(NC(=S)NNc2ccnc3cc(Cl)ccc23)cc1	> 20 µM (inactive)
O=C(Cn1c(-c2ccccc2)c[n+]2ccsc12)c1ccc(Br)cc1	> 20 µM (inactive)
CC(NC(=O)c1cc2c(=O)n3ccccc3nc2n(CC2CCCO2)c1=N)c1ccccc1 (stereo unspecified)	> 20 µM (inactive)
Cc1nn(C)c(C)c1/C=C/C(=O)c1ccc(Cl)cc1Cl	> 20 µM (inactive)
Cc1cc(C)nc(SCC(=O)Nc2ccc(N3CCOCC3)c(Cl)c2)n1	> 20 µM (inactive)
CN(Cc1ccc(OC(F)F)cc1)C(=O)c1cccc(S(=O)(=O)N2CCN(Cc3ccccc3)CC2)c1	> 20 µM (inactive)
O=C(C1CCCCC1)N1CCN(c2ccnc3cc(Cl)ccc23)CC1	> 20 µM (inactive)
Cc1cc(=O)[nH]c(SCC(=O)/C=C2\N(C)c3ccccc3C2(C)C)n1	> 20 µM (inactive)
CC[C@@H](O)C[C@H]1CCC[C@@]2(C[C@@H]3OC(=O)/C=C/[C@@](C)(O)[C@@H](O)[C@H](C)[C@@H](O)[C@H](OC4CCC(N(C)C)C(C)O4)[C@@H](O)[C@](C)(O)CCCCC/C=C/[C@@H]4CC(C)(C)O[C@@]4(O)C[C@H](O2)[C@H]3C)O1 (stereo partly specified)	> 20 µM (inactive)
COc1ccc(C(C(=O)NC2CCCCC2)N(C(=O)CCl)c2ccc(Cl)cc2)cc1 (stereo unspecified)	4.86 µM
N=c1c(-c2nc3ccccc3[nH]2)cc(C(=O)c2ccco2)nn1-c1ccccc1	> 20 µM (inactive)
